# Data taken from patent US5948814A, “Genistein for the treatment of cystic fibrosis” (priority 1998, dated 1999).
# “Also recorded” adds a separate entry of the source.
# Key:
# wt-CFTR [1] = target: T1, wt-CFTR (Homo sapiens, UniProt P13569)
# Procedure: FIGS. 9A and B are recordings of the effects of genistein on CFTR gating in excised inside-out patches from NIH/3T3-CFTR or NIH/3T3-ΔF508 cells. CFTR channels were activated by 10 μM forskolin +20 nM calyculin A before excision into an inside-out configuration. Presence of calyculin A helps to slow channel dephosphorylation. (A): continuous 14.5 minute recording of a patch containing wt-CFTR. Expanded traces are 22 seconds in length. ATP (500 μM) with or without 20 μM genistein was present as indicated. (B): 2 traces of 44 seconds in length of an excised inside-out patch with CFTR-ΔF508.
# Electrophysiology: CFTR channel currents were recorded at room temperature (~22° C.) with a patch-clamp amplifier (EPC-9, Heka Electronic), filtered at 100 Hz with a built-in three-pole Bessel filter, and stored on videotapes. Data were subsequently refiltered at 25 Hz with an eight-pole Bessel filter (Frequency Device, Havervill, Mass.) and captured onto a hard disk at a sampling rate of 50 Hz. […] Patch-clamp electrodes were made from Corning 7052 glass capillaries (Warner Instrument, Hammed, Conn.). The pipette resistance was usually 3-5 M.OMEGA., and the seal resistance was >20 G.OMEGA.. The pipette solution contained (in mM) 140 N-methyl-D-glucamine chloride (NMDG-C1), 2 MgCl2, 5Ca Cl2, and 10 HEPES (pH 7.4 with NMDG). The superfusion solution contained (in mM) 150 […], 2 MgCl2, 1 EGTA, 5 glucose, and 5 HEPES (pH 7.4 with NaOH). In excised inside-out patch experiments, the bath solution contained (in mM) 130 MNDG-Cl, 10 EGTA, 10 HEPES, 20 tetraethylammonium chloride, 8 Tris, and 2 MgCl2 (pH 7.4 with NMDG). Pipette potential was held at 50 mV relative to the bath. Downward deflections represent channel opening.
# Channels were first activated in cell-attached patches with forskolin plus calyculin A, a membrane-permeant phosphatase inhibitor [Suganuma et al., 1991]. Patches were then excised into an inside-out configuration.
# [2] = tested on: cAMP levels or PKA activity; details: cited from earlier work
# topoisomerases = details: cited from earlier work
# histidine kinase = details: cited from earlier work
# wt-CFTR [3] = target: T1, wt-CFTR; type: cell-based; set-up: expressed in transfected cells; details: 50 μM genistein on forskolin; HEK293; n=10
# From the text: Transient expression of wt-CFTR in HEK293 cells: The pRBG4 vector containing wt-CFTR cDNA is a generous gift from Drs. Kevin Gunderson and Ron Kopito of Stanford University. HEK293 cells were transfected with the calcium phosphate method as described previously [Gunderson et al., 1994].
# Downward deflections represent channel opening.
# T1 sequence (P13569 whole entry): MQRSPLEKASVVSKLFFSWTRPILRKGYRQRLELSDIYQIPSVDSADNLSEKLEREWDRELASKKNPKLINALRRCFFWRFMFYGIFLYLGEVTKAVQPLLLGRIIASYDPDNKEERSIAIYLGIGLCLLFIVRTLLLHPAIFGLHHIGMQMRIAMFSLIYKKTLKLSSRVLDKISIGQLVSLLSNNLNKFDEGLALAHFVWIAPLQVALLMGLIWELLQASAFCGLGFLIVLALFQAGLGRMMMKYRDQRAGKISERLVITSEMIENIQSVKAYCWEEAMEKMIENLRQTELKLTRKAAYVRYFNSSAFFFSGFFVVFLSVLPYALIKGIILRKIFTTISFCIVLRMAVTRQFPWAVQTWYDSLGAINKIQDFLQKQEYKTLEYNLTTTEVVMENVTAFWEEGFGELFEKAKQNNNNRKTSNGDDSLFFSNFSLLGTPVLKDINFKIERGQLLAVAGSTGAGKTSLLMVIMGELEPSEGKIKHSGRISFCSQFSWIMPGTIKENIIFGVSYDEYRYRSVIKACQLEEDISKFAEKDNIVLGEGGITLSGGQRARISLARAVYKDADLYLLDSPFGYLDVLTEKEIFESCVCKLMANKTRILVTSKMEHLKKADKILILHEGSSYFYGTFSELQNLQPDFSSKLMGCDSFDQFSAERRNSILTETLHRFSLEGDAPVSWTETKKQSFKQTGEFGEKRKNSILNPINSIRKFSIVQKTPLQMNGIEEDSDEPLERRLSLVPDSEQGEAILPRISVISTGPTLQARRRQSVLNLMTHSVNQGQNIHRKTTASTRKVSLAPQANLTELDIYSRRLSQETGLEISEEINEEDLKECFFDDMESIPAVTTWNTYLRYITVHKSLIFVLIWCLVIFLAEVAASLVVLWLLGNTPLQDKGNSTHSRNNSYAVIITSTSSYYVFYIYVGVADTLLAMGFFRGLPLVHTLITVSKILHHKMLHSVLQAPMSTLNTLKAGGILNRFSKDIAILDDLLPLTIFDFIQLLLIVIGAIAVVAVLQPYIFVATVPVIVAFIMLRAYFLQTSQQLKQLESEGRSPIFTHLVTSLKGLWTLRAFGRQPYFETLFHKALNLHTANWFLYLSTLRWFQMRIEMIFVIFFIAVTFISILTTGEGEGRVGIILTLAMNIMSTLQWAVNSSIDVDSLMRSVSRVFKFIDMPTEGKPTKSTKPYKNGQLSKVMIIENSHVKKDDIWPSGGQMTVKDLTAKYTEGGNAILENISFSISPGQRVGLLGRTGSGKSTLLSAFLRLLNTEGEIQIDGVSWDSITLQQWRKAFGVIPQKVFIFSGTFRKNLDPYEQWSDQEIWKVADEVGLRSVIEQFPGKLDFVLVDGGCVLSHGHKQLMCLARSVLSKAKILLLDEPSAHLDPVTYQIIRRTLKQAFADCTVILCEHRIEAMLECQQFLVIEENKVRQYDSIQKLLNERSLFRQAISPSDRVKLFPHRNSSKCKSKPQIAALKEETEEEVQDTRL
structure (smiles),measurement,setting,value
"O=c1c(-c2ccc(O)cc2)coc2cc(O)cc(O)c12 [Genistein, 4',5,7-trihydroxyisoflavone]",increase of ATP-induced currents by genistein,"wt-CFTR [1]; 50 μM genistein, n=8",2.2±0.1 fold
same,opening of channels in absence of ATP,"wt-CFTR [1]; 50 μM genistein, no ATP",did not open wt-CFTR channels in the absence of ATP
same,channel open time,"wt-CFTR [1]; ATP with genistein, stated for both wt- and ΔF508-CFTR","2,033±173 milliseconds"
same,increase in Po by genistein,"wt-CFTR [1]; excised patches, ATP",twofold increase in the Po
same,effect on cAMP levels or PKA activity,[2],does not increase cAMP levels or PKA activity; also recorded: does not alter cellular cAMP levels or PKA activity
same,inhibition of topoisomerases,topoisomerases,inhibits
same,inhibition of histidine kinase,histidine kinase,inhibits
same,average increase in mean-current amplitude by genistein,wt-CFTR [3],3.1±0.7 fold
